Where a SMILES comes first, the peptide text is derived from it. Bridges are numbered along the chain shown (N, C = ends). The star is where a group is joined. ξ: configuration not given here. Pentadecanoyl(3ξ-OH,15-Gua) = N=C(N)NCCCCCCCCCCCCC(O)CC(=O)*
Key:
Type in all cases: in vivo
[1] = system: Phytophthora infestans (PHYTIN); conditions: for % efficacy (% fungal attack) PHYTIN: 360 ppm, in planta
[2] = system: Fusarium graminearum (GIBBZE); conditions: 360 ppm
[3] = system: Septoria tritici (SEPTTR); conditions: 360 ppm, protective application

Compound	% efficacy (% fungal attack) PHYTIN [1]	% efficacy (% fungal attack) GIBBZE ([2]; in planta)	% efficacy (% fungal attack), head blight on wheat caused by Fusarium graminearum ([2]; protective application)	% efficacy (% fungal attack), late blight on tomato caused by Phytophthora infestans ([1]; 7.2 ppm, protective application)	% efficacy (% fungal attack), head blight on wheat caused by Septoria tritici [3]
CCC(C)C1NC(=O)C(NC(=O)CC(O)CCCCCCCCCCCCNC(=N)N)C(C)OC(=O)C(C)NC(=O)C(CC(N)=O)NC(=O)C(C(C)O)NC(=O)C(Cc2ccc(O)cc2)NC1=O (stereo not drawn) [Compound 1A, fusaricidin 1A] ({Pentadecanoyl(3ξ-OH,15-Gua)}-TIYTNA; ester 1-C; configuration not given here)	100%	49%	49%	–	–
CCC(C)C1NC(=O)C(NC(=O)CC(O)CCCCCCCCCCCCNC(=N)N)C(C)OC(=O)C(C)NC(=O)C(CCC(N)=O)NC(=O)C(C(C)O)NC(=O)C(Cc2ccc(O)cc2)NC1=O (stereo not drawn) [Compound 1B, fusaricidin 1B] ({Pentadecanoyl(3ξ-OH,15-Gua)}-TIYTQA; ester 1-C; configuration not given here)	100%	–	–	44%	80%
